# According to PubChem BioAssay AID602353 (The Scripps Research Institute Molecular Screening Center, 2012):
# Calls of active or inactive are those of the source. The rule behind the calls is not given here.
# Columns and labels:
# Experiment in all cases: mouse tissue hydrolase off-target engagement – ABPP MudPIT, LC-MS, in vivo study for DAGLb inhibitor project, late-stage follow-up (AID 602353)
# Fam108b = settings: FP-probe spectral counts, stronger effect = lower value
# Ctsa = settings: FP-probe spectral counts, stronger effect = lower value
# Abhd11 = settings: FP-probe spectral counts, stronger effect = lower value
# Dpp7 = settings: FP-probe spectral counts, stronger effect = lower value
# Pafah1b2 = settings: FP-probe spectral counts, stronger effect = lower value
# Fasn = settings: FP-probe spectral counts, stronger effect = lower value
# Aoah = settings: FP-probe spectral counts, stronger effect = lower value
# Magl = settings: FP-probe spectral counts, stronger effect = lower value
# Daglb = settings: FP-probe spectral counts, vehicle vs compound significance, stronger effect = lower value
# Iah1 = settings: FP-probe spectral counts, stronger effect = lower value
# Pafah1b3 = settings: FP-probe spectral counts, stronger effect = lower value
# Lipe = settings: FP-probe spectral counts, stronger effect = lower value
# Pnpla7 = settings: FP-probe spectral counts, stronger effect = lower value
# Abhd10 = settings: FP-probe spectral counts, vehicle vs compound significance, stronger effect = lower value
# [1] = target: Acyl-protein thioesterase 1 (Mus musculus) (UniProt P97823); settings: FP-probe spectral counts, Lypla1, stronger effect = lower value
# Chain of Acyl-protein thioesterase 1 (Mus musculus) (P97823 whole entry, looked up): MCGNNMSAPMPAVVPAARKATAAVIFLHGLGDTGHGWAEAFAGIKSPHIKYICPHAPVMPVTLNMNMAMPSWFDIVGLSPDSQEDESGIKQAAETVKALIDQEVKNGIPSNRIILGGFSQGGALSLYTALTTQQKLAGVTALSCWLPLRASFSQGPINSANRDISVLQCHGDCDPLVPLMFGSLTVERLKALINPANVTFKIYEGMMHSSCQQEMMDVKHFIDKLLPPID
# Pafah2 = settings: FP-probe spectral counts, vehicle vs compound significance, stronger effect = lower value
# Abhd6 = settings: FP-probe spectral counts, vehicle vs compound significance, stronger effect = lower value
# Pla2g7 = settings: FP-probe spectral counts, vehicle vs compound significance, stronger effect = lower value
# Dpp4 = settings: FP-probe spectral counts, stronger effect = lower value
# [2] = target: Platelet-activating factor acetylhydrolase (Mus musculus) (UniProt Q60963); settings: FP-probe spectral counts, Pla2g7, stronger effect = lower value
# Chain of Platelet-activating factor acetylhydrolase (Mus musculus) (Q60963 whole entry, looked up): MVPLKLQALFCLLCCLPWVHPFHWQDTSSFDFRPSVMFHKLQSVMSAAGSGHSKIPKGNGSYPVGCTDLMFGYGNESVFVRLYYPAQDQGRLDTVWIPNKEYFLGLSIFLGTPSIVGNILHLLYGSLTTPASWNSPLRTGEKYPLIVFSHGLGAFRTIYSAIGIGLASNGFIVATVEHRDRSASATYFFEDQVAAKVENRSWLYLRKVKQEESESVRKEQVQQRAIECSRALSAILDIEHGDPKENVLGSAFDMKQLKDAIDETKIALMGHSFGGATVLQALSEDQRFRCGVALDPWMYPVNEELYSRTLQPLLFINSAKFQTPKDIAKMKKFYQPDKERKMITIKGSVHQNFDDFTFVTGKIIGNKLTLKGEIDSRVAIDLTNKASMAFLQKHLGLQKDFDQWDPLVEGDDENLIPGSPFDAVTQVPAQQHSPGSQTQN
# Dpp8 = settings: FP-probe spectral counts, stronger effect = lower value
# Kiaa1363 = settings: FP-probe spectral counts, stronger effect = lower value
# Dpp9 = settings: FP-probe spectral counts, stronger effect = lower value
# Prcp = settings: FP-probe spectral counts, stronger effect = lower value
# Pla2g15 = settings: FP-probe spectral counts, stronger effect = lower value
# [3] = target: Platelet-activating factor acetylhydrolase 2, cytoplasmic (Mus musculus) (UniProt Q8VDG7); settings: FP-probe spectral counts, Pafah2, stronger effect = lower value
# Chain of Platelet-activating factor acetylhydrolase 2, cytoplasmic (Mus musculus) (Q8VDG7 whole entry, looked up): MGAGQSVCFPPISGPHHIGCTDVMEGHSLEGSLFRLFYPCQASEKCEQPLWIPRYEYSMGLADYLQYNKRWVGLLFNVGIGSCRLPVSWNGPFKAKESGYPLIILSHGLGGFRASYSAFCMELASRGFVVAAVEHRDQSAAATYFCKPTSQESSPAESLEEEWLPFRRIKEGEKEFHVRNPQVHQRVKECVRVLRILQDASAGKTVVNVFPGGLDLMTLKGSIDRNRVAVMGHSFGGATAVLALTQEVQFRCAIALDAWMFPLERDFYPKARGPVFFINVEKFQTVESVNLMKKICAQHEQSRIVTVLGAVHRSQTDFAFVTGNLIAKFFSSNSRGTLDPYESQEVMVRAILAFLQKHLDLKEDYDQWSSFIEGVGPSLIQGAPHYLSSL
# [4] = target: Palmitoyl-protein thioesterase ABHD10, mitochondrial (Mus musculus) (UniProt Q6PE15); settings: FP-probe spectral counts, stronger effect = lower value
# Chain of Palmitoyl-protein thioesterase ABHD10, mitochondrial (Mus musculus) (Q6PE15 whole entry, looked up): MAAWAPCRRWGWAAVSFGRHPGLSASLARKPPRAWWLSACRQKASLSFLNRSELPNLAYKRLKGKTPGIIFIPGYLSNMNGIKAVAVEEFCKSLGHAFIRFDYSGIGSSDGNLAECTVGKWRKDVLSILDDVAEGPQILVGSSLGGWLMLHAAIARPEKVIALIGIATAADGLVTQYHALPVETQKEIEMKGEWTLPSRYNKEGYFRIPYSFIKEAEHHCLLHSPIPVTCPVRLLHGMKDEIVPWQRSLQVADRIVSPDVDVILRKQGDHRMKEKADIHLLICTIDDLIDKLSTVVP
# Apeh = settings: FP-probe spectral counts, stronger effect = lower value
# Lypla1 = settings: FP-probe spectral counts, vehicle vs compound significance, stronger effect = lower value
# Acot2 = settings: FP-probe spectral counts, stronger effect = lower value
# Elane = settings: FP-probe spectral counts, stronger effect = lower value
# Lypla2 = settings: FP-probe spectral counts, stronger effect = lower value
# [5] = target: Diacylglycerol lipase-beta (Mus musculus) (UniProt Q91WC9); settings: FP-probe spectral counts, Daglb, stronger effect = lower value
# Chain of Diacylglycerol lipase-beta (Mus musculus) (Q91WC9 whole entry, looked up): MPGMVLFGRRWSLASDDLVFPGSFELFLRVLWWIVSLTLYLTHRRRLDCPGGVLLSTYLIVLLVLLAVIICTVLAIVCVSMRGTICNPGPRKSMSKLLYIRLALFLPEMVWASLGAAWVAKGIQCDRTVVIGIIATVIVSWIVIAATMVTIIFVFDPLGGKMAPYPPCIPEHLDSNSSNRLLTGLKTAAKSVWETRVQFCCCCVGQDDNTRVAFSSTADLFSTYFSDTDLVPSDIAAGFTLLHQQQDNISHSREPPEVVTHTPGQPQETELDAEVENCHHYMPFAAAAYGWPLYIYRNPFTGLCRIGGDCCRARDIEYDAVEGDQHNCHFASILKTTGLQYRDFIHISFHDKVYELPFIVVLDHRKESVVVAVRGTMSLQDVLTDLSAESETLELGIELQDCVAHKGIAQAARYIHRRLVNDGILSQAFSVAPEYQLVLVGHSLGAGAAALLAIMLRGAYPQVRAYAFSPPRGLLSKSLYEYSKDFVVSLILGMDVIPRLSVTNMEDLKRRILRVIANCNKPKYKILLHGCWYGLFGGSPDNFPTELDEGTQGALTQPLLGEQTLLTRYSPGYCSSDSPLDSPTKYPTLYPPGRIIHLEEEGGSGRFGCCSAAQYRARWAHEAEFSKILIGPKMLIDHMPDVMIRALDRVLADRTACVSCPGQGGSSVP
# Pnpla6 = settings: FP-probe spectral counts, stronger effect = lower value
# Parl = settings: FP-probe spectral counts, stronger effect = lower value
# Abhd12 = settings: FP-probe spectral counts, stronger effect = lower value
# [6] = target: Monoacylglycerol lipase ABHD6 (Mus musculus) (UniProt Q8R2Y0); settings: FP-probe spectral counts, stronger effect = lower value
# Chain of Monoacylglycerol lipase ABHD6 (Mus musculus) (Q8R2Y0 whole entry, looked up): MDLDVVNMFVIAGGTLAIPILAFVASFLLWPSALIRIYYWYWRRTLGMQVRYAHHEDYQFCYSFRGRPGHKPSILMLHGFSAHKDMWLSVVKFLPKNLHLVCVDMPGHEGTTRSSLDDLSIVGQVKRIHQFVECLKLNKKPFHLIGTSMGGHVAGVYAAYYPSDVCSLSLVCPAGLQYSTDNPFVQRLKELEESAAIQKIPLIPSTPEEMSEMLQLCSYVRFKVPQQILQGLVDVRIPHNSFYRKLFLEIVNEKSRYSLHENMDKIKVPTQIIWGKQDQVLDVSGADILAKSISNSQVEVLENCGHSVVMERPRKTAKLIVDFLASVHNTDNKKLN
# Acot1 = settings: FP-probe spectral counts, stronger effect = lower value
# Lpl = settings: FP-probe spectral counts, stronger effect = lower value
# Ctsg = settings: FP-probe spectral counts, stronger effect = lower value
# Pnpla8 = settings: FP-probe spectral counts, stronger effect = lower value
# [7] = vehicle vs compound significance
compound,measurement,setting,value
COc1ccccc1-c1ccc(-c2cn(C(=O)N3CCCCC3Cc3ccccc3)nn2)cc1 (stereo not given),"spectral counts, test compound",Fam108b,24 (inactive)
same,P value,Fam108b; [7],0.757
same,"spectral counts, test compound",Ctsa,57.7 (inactive)
same,P value,Ctsa; [7],0.562
same,"spectral counts, test compound",Abhd11,23 (inactive)
same,P value,Abhd11; [7],0.167
same,"spectral counts, test compound",Dpp7,61.7 (inactive)
same,P value,Dpp7; [7],0.138
same,"spectral counts, test compound",Pafah1b2,66 (inactive)
same,P value,Pafah1b2; [7],0.317
same,"spectral counts, test compound",Fasn,178 (inactive)
same,P value,Fasn; [7],0.517
same,"spectral counts, test compound",Aoah,35.7 (inactive)
same,P value,Aoah; [7],0.389
same,"spectral counts, test compound",Magl,5.67 (inactive)
same,P value,Magl; [7],0.368
same,P value,Daglb,0.004
same,"spectral counts, test compound",Iah1,22.3 (inactive)
same,P value,Iah1; [7],0.127
same,"spectral counts, test compound",Pafah1b3,35 (inactive)
same,P value,Pafah1b3; [7],0.532
same,"spectral counts, test compound",Lipe,76 (inactive)
same,P value,Lipe; [7],0.299
same,"spectral counts, test compound",Pnpla7,34.3 (inactive)
same,P value,Pnpla7; [7],0.536
same,P value,Abhd10,0.961
same,"spectral counts, test compound",[1],84 (inactive)
same,P value,Pafah2,0.491
same,P value,Abhd6,0.033
same,P value,Pla2g7,0.996
same,"spectral counts, test compound",Dpp4,146 (inactive)
same,P value,Dpp4; [7],0.754
same,"spectral counts, test compound",[2],97.3 (inactive)
same,"spectral counts, test compound",Dpp8,31.3 (inactive)
same,P value,Dpp8; [7],0.949
same,"spectral counts, test compound",Kiaa1363,206 (inactive)
same,P value,Kiaa1363; [7],0.156
same,"spectral counts, test compound",Dpp9,134 (inactive)
same,P value,Dpp9; [7],0.213
same,"spectral counts, test compound",Prcp,133 (inactive)
same,P value,Prcp; [7],0.736
same,"spectral counts, test compound",Pla2g15,15 (inactive)
same,P value,Pla2g15; [7],0.135
same,"spectral counts, test compound",[3],33.7 (inactive)
same,"spectral counts, test compound",[4],22.3 (inactive)
same,"spectral counts, test compound",Apeh,252 (inactive)
same,P value,Apeh; [7],0.731
same,P value,Lypla1,0.819
same,"spectral counts, test compound",Acot2,85 (inactive)
same,P value,Acot2; [7],0.094
same,"spectral counts, test compound",Elane,120 (inactive)
same,P value,Elane; [7],0.837
same,"spectral counts, test compound",Lypla2,118 (inactive)
same,P value,Lypla2; [7],0.278
same,"spectral counts, test compound",[5],0
same,"spectral counts, test compound",Pnpla6,11.3 (inactive)
same,P value,Pnpla6; [7],0.696
same,"spectral counts, test compound",Parl,20 (inactive)
same,P value,Parl; [7],0.382
same,"spectral counts, test compound",Abhd12,64.7 (inactive)
same,P value,Abhd12; [7],0.512
same,"spectral counts, test compound",[6],0
same,"spectral counts, test compound",Acot1,48.3 (inactive)
same,P value,Acot1; [7],0.802
same,"spectral counts, test compound",Lpl,20.3 (inactive)
same,P value,Lpl; [7],0.81
same,"spectral counts, test compound",Ctsg,283 (inactive)
same,P value,Ctsg; [7],0.854
same,"spectral counts, test compound",Pnpla8,3.67 (inactive)
same,P value,Pnpla8; [7],0.35
